Measurements: patent publication US20230348444A1, “NOVEL COMPOUNDS FOR USE IN THE TREATMENT OF DISEASES ASSOCIATED WITH ANGIOTENSIN II” (Vicore Pharma AB, priority 2020, published 2023)
Read-outs that look alike come from different tables or passages of the source.

Tests used:
[1] = target: T1, human recombinant AT2 receptor (Homo sapiens, UniProt P50052); test: biochemical
T1 sequence (P50052 1-363): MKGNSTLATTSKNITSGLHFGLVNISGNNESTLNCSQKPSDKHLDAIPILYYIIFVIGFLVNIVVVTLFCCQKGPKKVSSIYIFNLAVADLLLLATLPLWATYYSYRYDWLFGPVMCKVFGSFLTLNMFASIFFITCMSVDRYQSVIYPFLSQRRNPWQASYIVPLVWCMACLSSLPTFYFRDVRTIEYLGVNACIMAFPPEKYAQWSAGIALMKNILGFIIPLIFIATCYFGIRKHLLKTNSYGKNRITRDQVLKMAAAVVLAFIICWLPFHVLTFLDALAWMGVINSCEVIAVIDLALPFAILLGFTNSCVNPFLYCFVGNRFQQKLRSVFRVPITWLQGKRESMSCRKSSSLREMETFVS
Procedure: (§3) Compounds were evaluated for binding to the human recombinant AT2 and AT1 receptor according to Eurofins protocol ITEM26 and ITEM24 using a radiometric scintillation assay.

[2] = target: T2, human recombinant AT1 receptor (Homo sapiens, UniProt P30556); test: biochemical
T2 sequence (P30556 1-359): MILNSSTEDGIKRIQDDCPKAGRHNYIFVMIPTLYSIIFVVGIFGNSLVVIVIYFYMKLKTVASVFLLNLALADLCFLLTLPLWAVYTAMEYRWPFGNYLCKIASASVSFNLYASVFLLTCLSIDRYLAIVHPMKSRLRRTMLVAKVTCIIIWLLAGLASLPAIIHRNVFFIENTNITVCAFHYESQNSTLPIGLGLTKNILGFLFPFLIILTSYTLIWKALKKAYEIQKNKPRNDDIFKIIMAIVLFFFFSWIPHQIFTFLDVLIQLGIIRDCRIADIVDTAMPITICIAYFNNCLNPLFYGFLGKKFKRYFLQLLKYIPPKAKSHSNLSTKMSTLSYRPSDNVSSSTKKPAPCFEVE
Procedure: as §3

[3] = Metabolic hydrolysis of C21 found during development; assay type: in vitro ADME; details: statement in words
[4] = tested on: CYP3A4&5; test: CYP inhibition in human liver microsomes (Eurofins protocol ITEMG232), testosterone substrate; assay type: in vitro ADME; details: probe testosterone, read-out: CYP3A4&5 testosterone Inh %
Procedure: (§1) The following substrates were used; CYP1A phenacetin, CYP2B6 bupropion, CYP2C8 paclitaxel and amodiaquine, CYP2C9 diclofenac, CYP2C19 omeprazole, CYP2D6 dextromethorphan, CYP3A midazolam and testosterone.
(§2) At the end of the incubation, the formation of metabolite was monitored by HPLC-MS/MS as the peak area response.

[5] = target: T3, CYP2D6 (Homo sapiens, UniProt P10635); test: CYP inhibition in human liver microsomes (Eurofins protocol ITEMG232); assay type: in vitro ADME; details: 10 μM, substrate dextromethorphan
T3 construct: tissue Eurofins ITEMG232; host or cells: human liver microsomes
T3 sequence (P10635 whole entry): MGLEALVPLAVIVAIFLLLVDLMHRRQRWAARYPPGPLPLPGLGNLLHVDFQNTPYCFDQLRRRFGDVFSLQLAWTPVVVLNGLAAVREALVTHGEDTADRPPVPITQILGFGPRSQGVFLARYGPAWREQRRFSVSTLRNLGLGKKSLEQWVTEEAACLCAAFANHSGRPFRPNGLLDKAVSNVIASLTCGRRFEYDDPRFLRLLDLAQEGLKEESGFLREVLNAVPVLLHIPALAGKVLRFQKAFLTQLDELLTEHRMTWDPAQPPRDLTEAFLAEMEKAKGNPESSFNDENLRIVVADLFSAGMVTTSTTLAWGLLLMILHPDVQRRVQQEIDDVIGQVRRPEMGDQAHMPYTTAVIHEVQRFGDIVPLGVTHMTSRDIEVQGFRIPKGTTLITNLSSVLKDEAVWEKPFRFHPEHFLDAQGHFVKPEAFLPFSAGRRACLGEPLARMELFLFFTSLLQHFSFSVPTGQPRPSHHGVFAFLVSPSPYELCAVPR
Procedure: as §1, §2

[6] = target: T4, CYP2B6 (Homo sapiens, UniProt P20813); test: as above; assay type: in vitro ADME; details: 10 μM, substrate bupropion
T4 construct: using isoform-specific substrates incubated with human liver microsomes; tissue Eurofins ITEMG232; host or cells: human liver microsomes
T4 sequence (P20813 1-491): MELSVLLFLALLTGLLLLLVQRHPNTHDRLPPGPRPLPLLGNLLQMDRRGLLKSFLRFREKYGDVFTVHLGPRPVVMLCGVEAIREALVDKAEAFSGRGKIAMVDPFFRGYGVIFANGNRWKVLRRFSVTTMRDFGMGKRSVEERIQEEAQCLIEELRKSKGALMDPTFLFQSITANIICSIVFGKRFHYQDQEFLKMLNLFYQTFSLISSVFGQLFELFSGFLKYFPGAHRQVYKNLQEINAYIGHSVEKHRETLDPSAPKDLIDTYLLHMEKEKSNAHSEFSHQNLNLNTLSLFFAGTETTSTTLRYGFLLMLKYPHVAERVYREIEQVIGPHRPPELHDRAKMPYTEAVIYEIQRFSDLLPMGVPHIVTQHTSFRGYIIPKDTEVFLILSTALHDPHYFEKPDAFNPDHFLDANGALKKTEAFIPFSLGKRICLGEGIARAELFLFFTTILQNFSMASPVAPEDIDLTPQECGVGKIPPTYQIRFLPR
Procedure: as §1, §2

[7] = target: T5, CYP2C8 (Homo sapiens, UniProt P10632); test: as above; assay type: in vitro ADME; details: 10 μM, substrates paclitaxel and amodiaquine
T5 construct: using isoform-specific substrates incubated with human liver microsomes; tissue Eurofins ITEMG232; host or cells: human liver microsomes
T5 sequence (P10632 1-490): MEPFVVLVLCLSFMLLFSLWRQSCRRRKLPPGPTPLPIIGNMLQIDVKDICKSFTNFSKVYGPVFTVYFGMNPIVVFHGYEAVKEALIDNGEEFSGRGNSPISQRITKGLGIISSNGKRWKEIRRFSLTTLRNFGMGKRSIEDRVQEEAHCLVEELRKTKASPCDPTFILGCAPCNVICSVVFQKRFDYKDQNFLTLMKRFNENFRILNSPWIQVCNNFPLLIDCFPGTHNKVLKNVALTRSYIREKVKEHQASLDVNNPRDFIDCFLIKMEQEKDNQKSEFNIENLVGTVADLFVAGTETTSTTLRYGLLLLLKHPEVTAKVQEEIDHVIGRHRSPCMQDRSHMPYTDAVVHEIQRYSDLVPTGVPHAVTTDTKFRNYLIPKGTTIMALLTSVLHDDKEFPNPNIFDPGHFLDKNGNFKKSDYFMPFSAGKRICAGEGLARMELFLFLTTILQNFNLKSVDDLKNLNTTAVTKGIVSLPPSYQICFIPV
Procedure: as §1, §2

[8] = target: T6, CYP1A (Homo sapiens, UniProt P05177); test: as above; assay type: in vitro ADME; details: 10 μM, substrate phenacetin
T6 construct: using isoform-specific substrates incubated with human liver microsomes; tissue Eurofins ITEMG232; host or cells: human liver microsomes
T6 sequence (P05177 2-516 limits assumed): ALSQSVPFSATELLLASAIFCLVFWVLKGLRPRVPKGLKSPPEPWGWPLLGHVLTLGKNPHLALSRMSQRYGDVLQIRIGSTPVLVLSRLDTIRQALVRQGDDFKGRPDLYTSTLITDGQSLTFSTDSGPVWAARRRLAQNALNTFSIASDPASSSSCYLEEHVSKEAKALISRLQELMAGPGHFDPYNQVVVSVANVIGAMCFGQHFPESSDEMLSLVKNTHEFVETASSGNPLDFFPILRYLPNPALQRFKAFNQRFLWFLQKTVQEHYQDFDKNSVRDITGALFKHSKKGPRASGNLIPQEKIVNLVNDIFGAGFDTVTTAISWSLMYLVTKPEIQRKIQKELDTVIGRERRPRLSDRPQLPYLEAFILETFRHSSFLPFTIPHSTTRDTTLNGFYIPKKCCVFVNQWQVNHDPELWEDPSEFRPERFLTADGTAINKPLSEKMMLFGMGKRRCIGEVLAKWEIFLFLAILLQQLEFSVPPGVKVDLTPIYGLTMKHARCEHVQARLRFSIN
Procedure: as §1, §2

[9] = target: CYP2C9 (Homo sapiens, UniProt P11712); test: CYP inhibition of C21 found during development; assay type: in vitro ADME; details: statement in words
Sequence of CYP2C9 (P11712 whole entry, canonical isoform): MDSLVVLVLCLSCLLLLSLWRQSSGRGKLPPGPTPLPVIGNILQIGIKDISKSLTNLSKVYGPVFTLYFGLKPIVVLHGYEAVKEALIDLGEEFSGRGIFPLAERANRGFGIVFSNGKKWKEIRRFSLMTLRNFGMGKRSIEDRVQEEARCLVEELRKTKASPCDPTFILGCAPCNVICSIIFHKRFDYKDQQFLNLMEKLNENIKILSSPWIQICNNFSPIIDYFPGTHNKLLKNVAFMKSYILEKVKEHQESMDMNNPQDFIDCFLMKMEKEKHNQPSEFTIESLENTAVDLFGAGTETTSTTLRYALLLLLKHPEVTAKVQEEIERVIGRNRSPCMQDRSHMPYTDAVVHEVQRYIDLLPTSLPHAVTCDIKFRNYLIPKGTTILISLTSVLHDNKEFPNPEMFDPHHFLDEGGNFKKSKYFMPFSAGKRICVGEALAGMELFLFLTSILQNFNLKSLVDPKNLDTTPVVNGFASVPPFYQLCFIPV

[10] = target: T7, CYP3A4 (Homo sapiens, UniProt P08684); test: CYP inhibition in human liver microsomes (Eurofins protocol ITEMG232), midazolam substrate; assay type: in vitro ADME; parameters: using isoform-specific substrates incubated with human liver microsomes; tissue Eurofins ITEMG232; host or cells: human liver microsomes; details: 10 μM
T7 sequence (P08684 whole entry, canonical isoform): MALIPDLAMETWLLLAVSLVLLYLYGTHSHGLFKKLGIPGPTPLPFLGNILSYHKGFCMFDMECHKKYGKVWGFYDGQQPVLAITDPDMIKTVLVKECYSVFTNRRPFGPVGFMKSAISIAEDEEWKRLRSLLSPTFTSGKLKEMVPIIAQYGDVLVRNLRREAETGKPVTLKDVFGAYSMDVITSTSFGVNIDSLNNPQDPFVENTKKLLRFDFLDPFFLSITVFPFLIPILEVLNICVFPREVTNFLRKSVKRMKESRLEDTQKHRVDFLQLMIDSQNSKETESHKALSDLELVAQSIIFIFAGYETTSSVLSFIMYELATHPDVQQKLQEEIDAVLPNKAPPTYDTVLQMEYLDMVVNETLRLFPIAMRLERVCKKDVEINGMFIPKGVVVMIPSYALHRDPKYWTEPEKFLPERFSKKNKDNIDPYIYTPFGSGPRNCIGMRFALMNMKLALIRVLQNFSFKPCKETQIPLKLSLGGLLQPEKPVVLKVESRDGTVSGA
Procedure: as §1, §2

[11] = Metabolic stability in pooled human liver microsomes with or without NADPH; assay type: in vitro ADME; details: human, pooled human liver microsomes, pooled human liver microsomes 0.5 mg/mL in PBS, 1 uM test compound, 37° C.
Procedure: Pooled human liver microsomes in PBS at a concentration of 0.5 mg/mL was incubated with or without 1 mM NADPH for 70 min at 37° C. Test compound was added after 10 minutes to a final concentration of 1 uM. Samples were withdrawn at 0, 5, 15 and 60 minutes and added to test tubes containing acetonitrile, to stop the reaction, and with terfenadine, used as internal standard. After centrifugation at 10000×g for 5 minutes the supernatant was diluted 1:1 with 1% formic acid. Samples were separated on a reverse phase column and detected by triple quadrupole MSMS (Agilant model 6540). The concentration of the parent compound at the different time points was measured with an external standard curve using terfenadine as internal standard and the initial metabolic rate in the presence or absence of NADPH calculated.

[12] = target: T7, CYP3A4; test: CYP inhibition of C21 found during development; assay type: in vitro ADME; details: statement in words

Compound: Cc1nccn1Cc1ccc(-c2cc(CC(C)C)sc2S(=O)(=O)NC(=O)OCCOc2ccccc2)cc1F [Example 9, 2-Phenoxyethyl (3-(3-fluoro-4-((2-methylimidazol-1-yl)methyl]phenyl)-5-isobutyl-2-thienyl)sulfonylcarbamate]
- IC50 [1]: 3.4 nM
- IC50 [2]: > 1000 nM

Compound: CCCCOC(=O)NS(=O)(=O)c1sc(CC(C)C)cc1-c1ccc(Cn2ccnc2)cc1 [Example C21, N-butyloxycarbonyl-3-(4-imidazol-1-ylmethylphenyl)-5-isobutylthiophene-2-sulfon-amide, reference compound]
- hydrolysis to an inactive sulfonamide metabolite [3]: rapidly hydrolysed
- inhibition at 10 µM [4]: 94%
- CYP2D6 Inh % [5]: 81%
- CYP2B6 Inh % [6]: 49%
- CYP2C8 Inh % [7]: 80%
- CYP1A Inh % [8]: 91%
- inhibition of CYP 2C9 [9]: potent inhibitor
- CYP3A4 midazolam Inh % [10]: 95%
- half-life at 1 uM ([11]; with 1 mM NADPH, read-out: T1/2, +NaDPH): 35 min
- half-life at 1 uM ([11]; without NADPH, read-out: T1/2, no NaDPH): 31 min
- inhibition of CYP 3A4 [12]: potent inhibitor
